Assay results published in patent US5521193A, “Benzimidazole compounds” (G. D. Searle & Co., priority 1995, dated 1996).

Tests used:
5-HT3 = assay: Bezold-Jarisch Reflex (inhibition of 5-HT-induced bradycardia in anesthetized mice); type: in vivo; conditions: i.p., 30 min before 5-HT 0.25 mg/kg i.v.; >50 percent reduction in bradycardic response vs vehicle considered significant; pentobarbital anesthetized mice
Experimental: (§1) 5-HT4 agonist activity was determined in the in vitro rat tunice muscularis mucosae (TMM) assay. (Baxter et el., Naunyn Schmied Arch. Pharmacol, 1991, 343,439). The 5-HT4 agonist or antagonist activity and/or 5-HT3 antagonist activity of the compounds of the invention herein, can be determined by the assays as described herein, without undue experimention.
The compound to be evaluated was administered i.p. (mg/kg) to a group of 3 mice. […] A greater than 50 percent (>50) reduction in the bradycardic response relative to vehicle-treated control mice was considered significant.
This method has been described by Saxena, P. R. and Lawang, A., Arch. Int. Pharmacodyn., 277:235-252, 1985.
The assay results for the compounds of the present invention and their Minimum Effective Dose (MED) and the reference compounds and their MEDs are recorded in Table I.

5-HT3 receptor = biological target: T1, 5-HT3 receptor (Rattus norvegicus, UniProt P35563); assay: Serotonin (5-HT3) radioligand binding, [3H]-GR65630, rat brain cortex membranes; conditions: Ki, [3H]-GR65630 0.2 nM; 60 min, 22° C.
T1 construct: Brain cortices were obtained from male rats and a membrane fraction prepared by standard techniques; from tissue; host or cells: rat brain cortex membranes
T1 sequence (P35563 24-483): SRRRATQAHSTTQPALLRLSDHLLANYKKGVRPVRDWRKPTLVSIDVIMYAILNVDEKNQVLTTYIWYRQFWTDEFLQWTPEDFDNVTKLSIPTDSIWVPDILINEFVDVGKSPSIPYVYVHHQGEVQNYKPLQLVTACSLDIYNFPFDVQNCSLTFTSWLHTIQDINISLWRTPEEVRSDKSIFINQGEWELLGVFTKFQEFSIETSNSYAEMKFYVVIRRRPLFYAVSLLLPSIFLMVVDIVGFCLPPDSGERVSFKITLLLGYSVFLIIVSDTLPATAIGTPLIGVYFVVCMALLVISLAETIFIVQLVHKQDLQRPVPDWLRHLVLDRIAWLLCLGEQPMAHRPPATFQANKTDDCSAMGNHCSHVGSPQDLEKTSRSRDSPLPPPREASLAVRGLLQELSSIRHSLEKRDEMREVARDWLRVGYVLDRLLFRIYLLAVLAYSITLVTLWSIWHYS
Experimental: GR65630 binds to the 5-HT3 receptor. Brain cortices were obtained from male rats and a membrane fraction prepared by standard techniques. 0.04 mg of membrane prep was incubated with 0.2 nM […] for 60 minutes at 22° C. […] Membranes were filtered and washed times and the filters were counted to determine [3H]-GR65630 specifically bound. Kilpatrick G. J., Jones B. J. and Tyers M. B. Identification and distribution of 5-HT3 receptors in rat brain using radioligand binding assay. Nature, 330 : 746-748, 1987.

5-HT4 receptor = biological target: T2, 5-HT4 receptor (Rattus norvegicus, UniProt Q62758); assay: biochemical; conditions: carbachol (3 μM)-contracted rat esophagus TMM; 37° C.; tissues from 5 rats; read-out: 5-HT4 Agonism (Rat TMM) In Vitro Assay: EC50 Values
T2 construct: One 2 cm segment of intrathoracic esophagus proximal to the diaphragm was removed from male rats; from tissue; host or cells: rat intrathoracic oesophagus, inner tunica muscularis mucosae
T2 sequence (Q62758 whole entry): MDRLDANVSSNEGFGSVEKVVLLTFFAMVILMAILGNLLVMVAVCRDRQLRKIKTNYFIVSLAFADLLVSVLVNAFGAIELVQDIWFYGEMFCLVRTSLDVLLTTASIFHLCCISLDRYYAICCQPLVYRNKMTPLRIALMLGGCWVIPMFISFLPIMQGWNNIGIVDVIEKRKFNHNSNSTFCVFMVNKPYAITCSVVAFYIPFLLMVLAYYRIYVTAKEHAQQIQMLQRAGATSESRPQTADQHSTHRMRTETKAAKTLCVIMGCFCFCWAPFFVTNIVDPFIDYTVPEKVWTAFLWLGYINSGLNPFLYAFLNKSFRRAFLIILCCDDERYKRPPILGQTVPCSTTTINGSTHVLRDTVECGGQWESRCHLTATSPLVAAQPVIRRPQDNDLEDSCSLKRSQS
Experimental: as §1
Agonist activity was determined utilizing relaxation of carbachol-contracted rat tunica muscularis mucosae. One 2 cm segment of intrathoracic esophagus proximal to the diaphragm was removed from male rats, weighing approximately 300 gm, and the outer muscle layers removed. The inner tunica muscularis mucosa was mounted under 0.2-0.3 g of tension in a tissue bath containing oxygenated Tyrode's solution at 37° C. […] Following a 30 min equilibrium period, tissues were isometrically contracted with carbachol (3 μM) to obtain a tonic contraction. A stable plateau was obtained within 20 min when test compound was added cumulatively to relax the muscle strip. EC50 values were obtained for each agonist in tissues from 5 rats.

Compound | Minimum Effective Dose (MED) (5-HT3) [mg/kg] | Ki (5-HT3 receptor) [nM] | EC50 (5-HT4 receptor) [nM]
CC(C)n1c(=O)n(C(=O)NCCC23CCCN2CCC3)c2ccccc21 [Example 13, N-[2-(hexahydro-7aH-pyrrolizin-7a-yl)ethyl]-2,3-dihydro-3-(1-methylethyl) 2-oxo-1H-benzimidazole-1-carboxamide] | 10 | 120 | 179
O=c1[nH]c2ccccc2n1CCCN1CCC(n2c(=O)[nH]c3cc(Cl)ccc32)CC1 [domperidone] | > 10 | – | –
CC[C@@H](CO)NC(=O)[C@@H]1C=C2c3cccc4c3c(cn4C)C[C@H]2N(C)C1 [methylsergide] | > 10 | – | –
CCN(CC)CCNC(=O)c1cc(Cl)c(N)cc1OC [metoclopramide] | 5 | – | –
CN1[C@@H]2C[C@@H](OC(=O)[C@H](CO)c3ccccc3)C[C@H]1[C@@H]1O[C@@H]12 [scopolamine] | 2.5 | – | –
